Experimental findings from US20250353860A1, “PIPERIDINE CARBOXAMIDE AZAINDANE DERIVATIVE, METHOD FOR PREPARING SAME, AND USE THEREOF” (BRISE PHARMACEUTICALS CO., LTD., priority 2022, published 2025) are described below.

One test concerns the target CGRP receptor (Homo sapiens, UniProt O60894+Q16602). The test can be described thus: Inhibition of CGRP signaling pathway (cAMP, HTRF) in SK-N-MC cells. More on the design: SK-N-MC (ATCC, HTB-10) cells endogenously expressing CGRP receptor; host or cells: SK-N-MC. It counts as cell-based. To be noted: [α-CGRP]=10 ng/mL; increase in cAMP levels; read-out: IC50 of the inhibitory effect on the CGRP signaling pathway in SK-N-MC cells. As for the experimental part:
The inhibitory effect of the CGRP signaling pathway in vitro is evaluated by measuring the cAMP level. The principle is that after CGRP binds to the CGRP receptor, the CGRP signaling pathway is activated, inducing an increase in the cAMP level. […] The specific experimental method is as follows:
cAMP was determined using the CAMP-GS DYNAMIC KIT detection kit (Cisbio, 62AM4PEB).
SK-N-MC (ATCC, HTB-10) cells endogenously expressing CGRP receptor were cultured in EMEM+10% FBS medium and the cells were collected during the logarithmic growth phase. According to the instructions of the kit, the cells were resuspended in Stimulation Buffer comprising 0.5 mM IBMX, and 5 μL of the cell suspension was added to each well of a 96-well microplate (Cisbio, 66PL96025) at a cell density of 15,000 cells/well, 2.5 μL of gradient diluted compound solution was added to each well. After incubation at 37° C. for 30 minutes, 2.5 μL of 40 ng/ml human α-CGRP (Bachem, H-1470.0500) diluted in Stimulation Buffer comprising 0.5 mM IBMX was added to each well to a final concentration of 10 ng/ml. After incubation at 37° C. for 30 minutes, 5 μL of Anti-cAMP-Cryptate solution and 5 μL of cAMP-d2 solution were added to each well. After incubation at room temperature for 60 minutes, the HTRF signal was read using a microplate reader (Molecular Devices). Graphpad Prism was used to calculate the IC50 value of the compound's inhibitory effect on the increase in cAMP levels based on the compound concentration and HTRF signal.

Test [1] deals with Cynomolgus monkey blood flow. As to the kind of experiment: Capsaicin-induced Cynomolgus monkey blood flow model. It counts as in vivo, Cynomolgus monkeys. To be noted: N = 3. As for the experimental part:
In the capsaicin-induced Cynomolgus monkey blood flow model, the inhibitory effect of the compounds of the present application on cynomolgus monkey blood flow was evaluated.
In Example 1A and Example 3A, 100% polyethylene glycol 400 was used as the vehicle.
Experimental animals: male cynomolgus monkeys, with a body weight range of 3.2 kg to 5.80 kg during the administration period, purchased from Guangxi Xiongsen Primate Experimental Animal Breeding and Development Co., Ltd., production license: SCXK (Gui) 2016-0003; experimental animal quality certificate number: NO. 0002942.
Housing conditions: animals were kept in stainless steel cages by a single cage feeding method. The cage specifications are length×width×height=1 m×1 m×0.8 m. Before anesthesia with zoletil, the animals need to be fasted (but not water). The rest of the time, the animals were fed once in the morning and afternoon, about 100 g each time for one animal, supplemented with fresh fruits. The temperature of the animal room was set at 18-26° C., the humidity was 40-70%, and the lighting was alternating between light and dark for 12 hours.
After adaptive feeding, 10 cynomolgus monkeys were randomly selected, and the basal values were recorded using a moorFLPI-2 laser speckle blood flowmeter before capsaicin stimulation. After capsaicin stimulation, blood flow was tested again, and animals with an area under the time-blood flow rate curve (AUC)≥1000 (min·%) and small individual differences were selected to enter this experiment.
The blank vehicle control group was given 100% polyethylene glycol 400, and the drug administration group was given high and low doses of Example 1A and Example 3A (dissolved in 100% polyethylene glycol 400), respectively.
Note: Bolus is a large-dose push injection; Infusion is a small-dose continuous infusion.
Blood flow detection: all animals were given capsaicin once on the day of administration, and blood flow was detected at 0 min (before capsaicin administration), 5 min, 10 min, 15 min, 20 min and 30 min after capsaicin administration to monitor blood flow changes during this period. After the experiment ended that day, washout was carried out at intervals of 7-10 days, during which the experimental animals were rotated in turn. This type of experiment was repeated three times to obtain the average value of each group of data.
The blood flow change rate, AUC (area under the blood flow change rate-time curve) and blood flow inhibition rate were calculated using Excel.

[2] abbreviates: 5 min after capsaicin, 0.3 μg/kg + 0.03 μg/kg/min.
Setting [3] is: 5 min after capsaicin, 1 μg/kg + 0.1 μg/kg/min.
The mark [4] stands for this setting: 10 min after capsaicin, 0.3 μg/kg + 0.03 μg/kg/min.
The mark [5] stands for this setting: 10 min after capsaicin, 1 μg/kg + 0.1 μg/kg/min.
Where [6] appears, read: 15 min after capsaicin, 0.3 μg/kg + 0.03 μg/kg/min.
Where [7] appears, read: 15 min after capsaicin, 1 μg/kg + 0.1 μg/kg/min.
The mark [8] stands for this setting: 20 min after capsaicin, 0.3 μg/kg + 0.03 μg/kg/min.
Where [9] appears, read: 20 min after capsaicin, 1 μg/kg + 0.1 μg/kg/min.
Setting [10] is: 30 min after capsaicin, 0.3 μg/kg + 0.03 μg/kg/min.
[11] abbreviates: 30 min after capsaicin, 1 μg/kg + 0.1 μg/kg/min.

Usually IC50 stands for the point on the concentration scale where inhibition reaches its midpoint.

CGRP receptor, sequence (Q16602 23-461): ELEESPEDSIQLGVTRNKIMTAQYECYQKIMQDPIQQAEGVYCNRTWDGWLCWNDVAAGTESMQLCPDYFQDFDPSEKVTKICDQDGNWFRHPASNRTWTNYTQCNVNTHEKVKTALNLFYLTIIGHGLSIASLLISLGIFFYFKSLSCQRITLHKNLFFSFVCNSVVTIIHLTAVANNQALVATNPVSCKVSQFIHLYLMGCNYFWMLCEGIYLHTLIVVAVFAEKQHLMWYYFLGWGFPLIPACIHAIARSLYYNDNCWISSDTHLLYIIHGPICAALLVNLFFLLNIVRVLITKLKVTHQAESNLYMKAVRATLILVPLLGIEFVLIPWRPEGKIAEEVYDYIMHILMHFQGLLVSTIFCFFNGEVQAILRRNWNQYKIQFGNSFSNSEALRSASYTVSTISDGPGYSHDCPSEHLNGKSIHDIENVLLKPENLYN
CGRP receptor, sequence (O60894 27-148): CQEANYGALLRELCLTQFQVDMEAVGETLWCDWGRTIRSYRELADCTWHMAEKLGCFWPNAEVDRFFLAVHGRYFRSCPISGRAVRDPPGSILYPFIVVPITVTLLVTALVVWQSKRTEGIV

Take `C[C@@H]1[C@H](c2c(F)ccc(F)c2F)C[C@H](NC(=O)c2cnc3c(c2)C[C@@]2(C3)C(=O)Nc3ncccc32)C(=O)N1CC(F)(F)F` [Atogepant, reference compound]: the IC50 at CGRP receptor was found to be 0.12 nM.
Consider `C[C@@H]1[C@H](c2c(F)ccc(F)c2F)C[C@H](NC(=O)c2cc3c(o2)CC[C@]2(C3)C(=O)Nc3ncccc32)C(=O)N1CC(F)(F)F` [Example 1A, (R)—N-((3S,5S,6R)-6-methyl-2-oxo-1-(2,2,2-trifluoroethyl)-5-(2,3,6-trifluorophenyl)piperidin-3-yl)-2′-oxo-1′,2′,6,7-tetrahydro-4H-spiro[benzofuran-5,3′-pyrrolo[2,3-b]pyridine]-2-carboxamide], for which the “AUC (area under the blood flow change rate-time curve)” value in test [1] (0.3 μg/kg + 0.03 μg/kg/min) worked out at 454 %-min; in test [1] (1 μg/kg + 0.1 μg/kg/min), 198 %-min. For the same compound, the “Blood flow change rate” value was determined as 26% in test [1] (setting [2]); 12% in test [1] (setting [3]); 37% in test [1] (setting [4]); 21% in test [1] (setting [5]); 26% in test [1] (setting [6]); 5% in test [1] (setting [7]). The “Blood flow change rate” value in test [1] (setting [8]) is listed as 12%; in test [1] (setting [9]), 9%; in test [1] (setting [10]) it was −4%; in test [1] (setting [11]), −6%. Moreover, the IC50 at CGRP receptor turned out to be 0.18 nM.
As to `C[C@@H]1[C@H](c2c(F)ccc(F)c2F)C[C@H](NC(=O)c2cc3c(s2)C[C@]2(C3)C(=O)Nc3ncccc32)C(=O)N1CC(F)(F)F` [Example 3A, (S)—N-((3S,5S,6R)-6-methyl-2-oxo-1-(2,2,2-trifluoroethyl)-5-(2,3,6-trifluorophenyl)piperidin-3-yl)-2′-oxo-1′,2′,4,6-tetrahydrospiro[cyclopenta[b]thiophene-5,3′-pyrrolo[2,3-b]pyridine]-2-carboxamide], the results for the “AUC (area under the blood flow change rate-time curve)” value in test [1] (0.3 μg/kg + 0.03 μg/kg/min) and in test [1] (1 μg/kg + 0.1 μg/kg/min) were 1481 %-min and 395 %-min, respectively. For the same compound, the “Blood flow change rate” value in test [1] (setting [2]) is given as 69%; in test [1] (setting [3]), 27%; in test [1] (setting [4]), 71%; in test [1] (setting [5]), 35%; in test [1] (setting [6]) it was 69%; in test [1] (setting [7]) it was 25%. Also, the “Blood flow change rate” value in test [1] (setting [8]) is 48%; in test [1] (setting [9]), 3%; in test [1] (setting [10]) it was 49%; in test [1] (setting [11]), 1%. Also, at CGRP receptor, the IC50 was determined as 0.68 nM.
